In patent US20060116368A1, “4-Piperidinecarboxamide modulators of vanilloid VR1 receptor” (priority 2004, published 2006):

Tests used:
hVR1 receptors = biological target: T1, hVR1 receptors (Homo sapiens, UniProt Q8NER1); assay: Human VR1 binding assay ([3H]RTX); conditions: [3H]RTX binding; membranes of HEK293 cells transfected with human VR1
T1 construct: expressed in transfected cells; host or cells: HEK293
Method: Compounds of the present invention were tested for their ability to inhibit the binding of [^3H] RTX to hVR1 receptors in a [^3H] RTX binding assay as previously described (Zhang, Sui-Po. Improved ligand binding assays for vanilloid receptors. PCT Int. Appl. (2002), WO 0233411 A1 20020425 AN 2002:315209, and Grant, Elfrida R., Dubin, Adrienne E., Zhang, Sui-Po, Zivin, Robert A., Zhong, Zhong Simultaneous intracellular calcium and sodium flux imaging in human vanilloid receptor 1 (VR1)-transfected human embryonic kidney cells: a method to resolve ionic dependence of VR1-mediated cell death. J. Pharmacol. Exp. Ther., 2002, 300(1), 9-17.)
HEK293 cells were transfected with human VR1 vanilloid receptors and washed with Hank's balanced Salt Solution, dissociated with cell dissociation buffer (Sigma), and then centrifuged at 1000×g for 5 min. Cell pellets were homogenized in cold 20 mM HEPES buffer, pH 7.4, containing 5.8 mM NaCl, 320 mM sucrose, 2 mM MgCl2, 0.75 CaCl2 and 5 mM KCl and centrifuged at 1000×g for 15 min. The resultant supernate was then centrifuged at 40000×g for 15 min. The pelleted membranes were stored in a freezer at −80° C.
Approximately 120 μg protein/ml from membranes were incubated with indicated concentrations of [^3H]RTX in 0.5 ml of the HEPES buffer (pH 7.4) containing 0.25 mg/mL fatty acid-free bovine serum albumin at 37° C. for 60 min. The reaction mixture was then cooled to 4° C., added 0.1 mg α1-acid glycoprotein to each sample and incubated at 4° C. for 15 min. The samples were centrifuged at 18500×g for 15 min. The tip of the microcentrifuge tube containing the pellet was cut off. Bound radioactivity was quantified by scintillation counting. Non-specific binding was tested in the presence of 200 nM unlabeled RTX.
Data were calculated according to the equation: % inhibition=(total binding−binding)*100/(total binding−non specific binding). Ki values were calculated using a Prism program.

[1] = biological target: T2, Human Vanilloid Receptor 1 (Homo sapiens, UniProt Q8NER1); assay: Human VR1 functional assay using FLIPR, Protocol 1; assay type: cell-based; conditions: for inhibition at 9 µM: HEK293, 9 uM, inhibition of capsaicin (EC80)-induced calcium response, HEK 293 cells transfected with hVR1, read-out: h % I (9 uM); for IC50: decreased capsaicin (EC80)-induced calcium response, HEK 293 hVR1, read-out: h IC50
T2 construct: expressed in transfected cells; host or cells: HEK 293
Outline: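 Transfected HEK 293 cells, plated 24 h before, were dye-loaded (30 min 37 °C, 30 min RT) and read by FLIPR calcium assay. Compound added with 5 min acquisition, then capsaicin at EC80. EC50 from compound-induced calcium at 5 min; IC50 from reduced capsaicin-induced response.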

[2] = biological target: T2, Human Vanilloid Receptor 1; assay: Human VR1 functional assay using FLIPR, Protocol 2; assay type: cell-based; conditions: for h % I (1 uM): inhibition of capsaicin (EC80)-induced calcium response; for h % I (1 uM) / % E80 Capsaicin (1.2 uM): HEK 293 stably transfected hVR1; for IC50: decreased capsaicin (EC80)-induced calcium response, HEK 293 stably transfected hVR1, read-out: h IC50; for % E80 Capsaicin (1.2 uM): test compound-induced calcium response (agonist mode)
Method: The functional activity of the test compounds was determined by measuring changes in intracellular calcium concentration using FLIPR™ Calcium-3 Assay Kit and FLIPR™ technology.
HEK 293 cells stably transfected with Human Vanilloid Receptor 1 were maintained at 37° C. and 5% CO2 in: Dulbecco's Modification of Eagle's Medium (4.5 g/L glucose, L-glutamine, sodium pyruvate), 10% FBS, 1× Penicillin-Streptomycin, 400 ug/mL G418 Sulfate. Approximately 24 hours prior to assay, 5,000 cells/well were plated onto a 384-well black clear bottom poly-D-lysine-coated assay plate with a well volume of 25 μL using Titertek Multidrop.
On the day of the assay, the medium was dumped and 50 μL of dye (bulk kit vials diluted with 200 mL buffer) was loaded using Multidrop. Plates were incubated with dye at 37° C. for 30 minutes followed by 30 minutes incubation at room temperature. Then the plates were assayed by FLIPR™ with 2 additions: 12.5 μL test compound with 5 minutes data acquisition followed by 12.5 μL capsaicin at the EC80 concentration.
The EC50 values of test compounds were calculated based on a test compound-induced calcium response at the 5-minute time point. The IC50 values of compounds were calculated based on a decreased capsaicin-induced calcium response in the presence of test compound.

T1 sequence (Q8NER1 whole entry): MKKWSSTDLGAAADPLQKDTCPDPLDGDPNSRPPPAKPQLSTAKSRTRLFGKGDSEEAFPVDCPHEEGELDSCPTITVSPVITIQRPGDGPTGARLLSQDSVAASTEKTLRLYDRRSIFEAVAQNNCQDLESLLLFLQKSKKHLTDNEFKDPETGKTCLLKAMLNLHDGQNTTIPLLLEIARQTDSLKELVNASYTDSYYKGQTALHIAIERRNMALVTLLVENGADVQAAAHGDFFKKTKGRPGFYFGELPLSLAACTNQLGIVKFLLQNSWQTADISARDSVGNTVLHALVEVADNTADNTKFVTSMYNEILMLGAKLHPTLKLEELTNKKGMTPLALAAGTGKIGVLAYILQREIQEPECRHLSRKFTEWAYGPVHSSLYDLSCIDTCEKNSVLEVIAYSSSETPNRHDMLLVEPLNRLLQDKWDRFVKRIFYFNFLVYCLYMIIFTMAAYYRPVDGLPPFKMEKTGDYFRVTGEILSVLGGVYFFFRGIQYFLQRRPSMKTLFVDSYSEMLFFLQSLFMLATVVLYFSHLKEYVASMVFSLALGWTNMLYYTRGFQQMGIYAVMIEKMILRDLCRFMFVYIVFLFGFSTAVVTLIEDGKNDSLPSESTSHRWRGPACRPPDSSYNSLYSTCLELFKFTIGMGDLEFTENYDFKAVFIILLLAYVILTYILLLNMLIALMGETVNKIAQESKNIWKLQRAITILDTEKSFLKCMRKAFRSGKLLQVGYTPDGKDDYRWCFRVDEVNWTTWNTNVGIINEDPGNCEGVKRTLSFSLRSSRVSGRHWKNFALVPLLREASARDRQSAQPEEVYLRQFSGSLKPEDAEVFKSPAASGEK
T2 sequence (Q8NER1 whole entry): as above

SMILES | Ki (hVR1 receptors) [nM] | inhibition at 9 µM [1] [%] | IC50 [1] [nM] | h % I (1 uM) [2] [%] | IC50 [2] [nM] | % E80 Capsaicin (1.2 uM) [2] [%]
CCc1ccccc1N1CCC(C(=O)Nc2ccc3c(c2)NC(=O)CO3)CC1 [Example 142, 1-(2-Ethyl-phenyl)-piperidine-4-carboxylic acid (3-oxo-3,4-dihydro-2H-benzo[1,4]oxazin-6-yl)-amide] | 125 | 96.3 | 150 |  |  | 
CC(C)c1ccccc1N1CCC(C(=O)Nc2ccc3c(c2)NC(=O)CO3)CC1 [Example 143, 1-(2-Isopropyl-phenyl)-piperidine-4-carboxylic acid (3-oxo-3,4-dihydro-2H-benzo[1,4]oxazin-6-yl)-amide] | 78 | 101 | 180 |  |  | 
Cc1ccc(N2CCC(C(=O)Nc3ccc4c(c3)NC(=O)CO4)CC2)cc1C [Example 144, 1-(3,4-Dimethyl-phenyl)-piperidine-4-carboxylic acid (3-oxo-3,4-dihydro-2H-benzo[1,4]oxazin-6-yl)-amide] | 314 | 77 | 380 |  |  | 
Cc1cccc(N2CCC(C(=O)Nc3ccc4c(c3)NC(=O)CO4)CC2)c1C [Example 145, 1-(2,3-Dimethyl-phenyl)-piperidine-4-carboxylic acid (3-oxo-3,4-dihydro-2H-benzo[1,4]oxazin-6-yl)-amide] | 27 | 99.5 | 60 |  |  | 
CC(C)(C)c1ccc(N2CCC(C(=O)Nc3ccc4c(c3)NC(=O)CO4)CC2)cc1 [Example 146, 1-(4-tert-Butyl-phenyl)-piperidine-4-carboxylic acid (3-oxo-3,4-dihydro-2H-benzo[1,4]oxazin-6-yl)-amide] | 132 | 112 | 90 |  |  | 
O=C1COc2ccc(NC(=O)C3CCN(c4cccc(F)c4)CC3)cc2N1 [Example 147, 1-(3-Fluoro-phenyl)-piperidine-4-carboxylic acid (3-oxo-3,4-dihydro-2H-benzo[1,4]oxazin-6-yl)-amide] | 84 | 90 | 520 |  |  | 
O=C1COc2ccc(NC(=O)C3CCN(c4cccc(Cl)c4)CC3)cc2N1 [Example 148, 1-(3-Chloro-phenyl)-piperidine-4-carboxylic acid (3-oxo-3,4-dihydro-2H-benzo[1,4]oxazin-6-yl)-amide] | 34 | 88.7 | 190 |  |  | 
O=C1COc2ccc(NC(=O)C3CCN(c4ccccc4F)CC3)cc2N1 [Example 151, 1-(2-Fluoro-phenyl)-piperidine-4-carboxylic acid (3-oxo-3,4-dihydro-2H-benzo[1,4]oxazin-6-yl)-amide] | 1470 | 62.3 | 670 |  |  | 
O=C1COc2ccc(NC(=O)C3CCN(c4ccccc4Cl)CC3)cc2N1 [Example 152, 1-(2-Chloro-phenyl)-piperidine-4-carboxylic acid (3-oxo-3,4-dihydro-2H-benzo[1,4]oxazin-6-yl)-amide] | 93 | 90.7 | 220 |  |  | 
O=C1COc2ccc(NC(=O)C3CCN(c4ccccc4Br)CC3)cc2N1 [Example 153, 1-(2-Bromo-phenyl)-piperidine-4-carboxylic acid (3-oxo-3,4-dihydro-2H-benzo[1,4]oxazin-6-yl)-amide] | 71 | 91.7 | 160 |  |  | 
O=C1COc2ccc(NC(=O)C3CCN(c4cc(F)cc(F)c4)CC3)cc2N1 [Example 154, 1-(3,5-Difluoro-phenyl)-piperidine-4-carboxylic acid (3-oxo-3,4-dihydro-2H-benzo[1,4]oxazin-6-yl)-amide] | 137 | 96 | 370 |  |  | 
O=C1COc2ccc(NC(=O)C3CCN(c4ccc(F)c(F)c4)CC3)cc2N1 [Example 155, 1-(3,4-Difluoro-phenyl)-piperidine-4-carboxylic acid (3-oxo-3,4-dihydro-2H-benzo[1,4]oxazin-6-yl)-amide] | 56 | 89 | 850 |  |  | 
O=C1COc2cccc(NC(=O)C3CCN(c4cc(F)c(F)c(F)c4)CC3)c2N1 [Example 169, 1-(3,4,5-Trifluoro-phenyl)-piperidine-4-carboxylic acid (3-oxo-3,4-dihydro-2H-benzo[1,4]oxazin-5-yl)-amide] |  |  |  | 9 |  | 
O=C1COc2cc(NC(=O)C3CCN(c4cc(F)c(F)c(F)c4)CC3)ccc2N1 [Example 170, 1-(3,4,5-Trifluoro-phenyl)-piperidine-4-carboxylic acid (3-oxo-3,4-dihydro-2H-benzo[1,4]oxazin-7-yl)-amide] |  |  |  | 55 | 735 | 
O=C1COc2c(cccc2NC(=O)C2CCN(c3cc(F)c(F)c(F)c3)CC2)N1 [Example 171, 1-(3,4,5-Trifluoro-phenyl)-piperidine-4-carboxylic acid (3-oxo-3,4-dihydro-2H-benzo[1,4]oxazin-8-yl)-amide] |  |  |  |  |  | 17
CN1C(=O)COc2ccc(NC(=O)C3CCN(c4cc(F)c(F)c(F)c4)CC3)cc21 [Example 172, 1-(3,4,5-Trifluoro-phenyl)-piperidine-4-carboxylic acid (4-methyl-3-oxo-3,4-dihydro-2H-benzo[1,4]oxazin-6-yl)-amide] |  |  |  |  |  | 39
O=C1CSc2ccc(NC(=O)C3CCN(c4cc(F)c(F)c(F)c4)CC3)cc2N1 [Example 173, 1-(3,4,5-Trifluoro-phenyl)-piperidine-4-carboxylic acid (3-oxo-3,4-dihydro-2H-benzo[1,4]thiazin-6-yl)-amide] |  |  |  | 37 | 1960 | 
O=C(Nc1ccc2c(c1)NC(=O)C(CCO)O2)C1CCN(c2cc(F)c(F)c(F)c2)CC1 (centres unmarked) [Example 174, 1-(3,4,5-Trifluoro-phenyl)-piperidine-4-carboxylic acid [2-(2-hydroxy-ethyl)-3-oxo-3,4-dihydro-2H-benzo[1,4]oxazin-6-yl]-amide] |  |  |  | 99 | 4.8 | 
CCOC(=O)C1(C)Oc2ccc(NC(=O)C3CCN(c4cc(F)c(F)c(F)c4)CC3)cc2NC1=O (centres unmarked) [Example 175, 2-Methyl-3-oxo-6-{[1-(3,4,5-trifluoro-phenyl)-piperidine-4-carbonyl]-amino}-3,4-dihydro-2H-benzo[1,4]oxazine-2-carboxylic acid ethyl ester] |  |  |  | 54 | 873 | 
CC1(C(=O)O)Oc2ccc(NC(=O)C3CCN(c4cc(F)c(F)c(F)c4)CC3)cc2NC1=O (centres unmarked) [Example 176, 2-Methyl-3-oxo-6-{[1-(3,4,5-trifluoro-phenyl)-piperidine-4-carbonyl]-amino}-3,4-dihydro-2H-benzo[1,4]oxazine-2-carboxylic acid] |  |  |  |  |  | 116
CCOC(=O)C1Oc2ccc(NC(=O)C3CCN(c4cc(F)c(F)c(F)c4)CC3)cc2NC1=O (centres unmarked) [Example 177, 3-Oxo-6-{[1-(3,4,5-trifluoro-phenyl)-piperidine-4-carbonyl]-amino}-3,4-dihydro-2H-benzo[1,4]oxazine-2-carboxylic acid ethyl ester] |  |  |  |  |  | 13
O=C(Nc1ccc2c(c1)NC(=O)C(C(=O)O)O2)C1CCN(c2cc(F)c(F)c(F)c2)CC1 (centres unmarked) [Example 178, 3-Oxo-6-{[1-(3,4,5-trifluoro-phenyl)-piperidine-4-carbonyl]-amino}-3,4-dihydro-2H-benzo[1,4]oxazine-2-carboxylic acid] |  |  |  |  |  | 80
